Measured values taken from patent US20030091615A1, “Use of betaine to enhance exercise performance” (priority 2001, published 2003).

Tested on: male subjects
Experiment: Randomized placebo-controlled double blind exercise test: rehydration solution, 75 min treadmill run in 30° C. heat, then sprint to volitional exhaustion
Format: in vivo, human
From the text: Ten male subjects were selected to participate in four experimental tests, described below. The study design was a randomized placebo-controlled double blind test. These tests were identical, except that a different rehydration solution was consumed during each session. The rehydration solutions are:
(a) Non-nutritive KOOL-AID®;
(b) Non-nutritive KOOL-AID® and betaine (5 g/l);
(d) GATORADE® and betaine (5 g/l).
The order of treatment for each subject was randomized.
The following measurements were taken throughout each of the four experimental tests:
1) Hydration variables were measured each day, including urine specific gravity and color, body weight, plasma osmolity.
2) Blood variables were sampled during each trial, including, hematocrit, hemoglobin, osmolality, glucose, lactate.
3) Physiological variables were measured during each trial, such as time to exhaustion (duration of final sprint), heart rate, blood pressure, oxygen consumption, minute ventilation, mean weighted skin temperature, rectal temperature, whole body sweat rate.
4) Perceptual variables were recorded, such as rating of perceived exertion (Borg scale) during the exercise test, thermal stress during the exercise test, thirst sensation during the exercise test.
Each subject participated in four experimental tests, performed at the same time of day for each subject, using the same posture at each stage of testing. Experimental tests were randomized. Trials were conducted in an environmental chamber controlled at 30° C.
When they arrived at the test center at 7:00 a.m., the body weight was measured, a blood sample was taken and the specific gravity of the urine was measured. In general, the subjects were mildly dehydrated, losing approximately 1% body weight. […] Subsequently, thereto, they then entered an environmental chamber which was maintained at a temperature of 30° C. and they stood for thirty minutes to effect fluid and thermal equilibration.
Various measurements were taken of each subject including blood pressure, urine specific gravity, body weight, blood pressure, plasma, osmolality and a blood sample when in the environmental chamber prior to the test. Each then performed cycling and walking exercise for 60-90 minutes at 50-55% VO2max so that they each lost about 3% of body weight.
At about 9:30 a.m., they consumed one of the above fluids.
The total volume was ingested in five equal portions over 25 minutes. (This increased the body weight change to a −1.5% level). They each stood an additional twenty minutes to allow gastric emptying. Then they began a treadmill run for 75 minutes at 65% VO2max. They finished the exercise in the heat by a sprinting to volitional exhaustion at a treadmill pace that elicits 90% VO2max. At the conclusion, they stood in the environmental chamber for additional measurements during a 15 minute recovery period. They left the chamber, then ate a meal and drank fluids.
The test was repeated for each person three more times, except each time they ingested a different one of the fluids so that at the end of the test, each subject had ingested each one of the four fluids. Subjects were instructed to match the diet they ate before the initial experiment, during the three subsequent trials. […]

C[N+](C)(C)CC(=O)[O-] [betaine, trimethylglycine]
increased plasma lactate levels 15 minutes after the sprint (GATORADE trials, betaine 5 g/l): 17%
increased plasma lactate levels immediately after the sprint (GATORADE trials, betaine 5 g/l): 10%
greater oxygen uptake (aerobic metabolism) while sprinting (GATORADE trials, betaine 5 g/l vs GATORADE alone): 6%
increased plasma lactate levels after the sprint (KOOL-AID trials, betaine 5 g/l): This effect was not seen
greater oxygen uptake (aerobic metabolism) while sprinting (KOOL-AID trials, betaine 5 g/l vs KOOL-AID alone): This effect was not seen
